The values below come from patent publication US5369111A, “Modulator agent and use thereof” (University of Vermont, priority 1992, dated 1994).

The structures appear in SMILES notation.

Series [1] can be described thus: Clonogenic assay for cytotoxicity, MDR variant KB-V1. In kind it is cell-based, human. Particulars: human, kb-v1 cells; read-out: non-toxic concentration limit. The text has this: The analogs were examined in a panel of tumor cell lines of both intrinsic and acquired drug resistance, as described in Table 1. The rat colon adenocarcinoma cell lines RCC-2 and RCC-5 (ref. 13) were maintained in Ham's F12 medium supplemented with 5% heat-inactivated, fetal bovine serum (Sterile Systems. Hyclone, Logan, Utah). The two rat colon cancer cell lines differ in their degree of cellular differentiation; whereas the RCC-2 cell line is undifferentiated, the RCC-5 cell line is highly mucinous. The human epidermoid carcinoma cell line KB-3-1 and its MDR variant KB-Vl, selected by VBL treatment (ref. 14; courtesy of M. Gottesman. National Cancer Institute), was maintained in DMEM medium supplemented with 10%, heat-inactivated, fetal bovine serum. The murine sarcoma cell line […] and its MDR strains A3 and A10 selected by ADM treatment (ref. 15; courtesy of T. Tritton, Dept. Pharmacology, Univ. Vermont). were maintained in DMEM medium supplemented with 10% heat-inactivated, horse serum (Hazelton Biolog. Lenexa, Kans.). Stock cultures were subcultured twice weekly upon reaching the late exponential phase of population growth: population doubling times were 18-24 h. Antibiotics were not used in stock or experimental cultures. The MDR cell strains were grown in drug-free media for 48 h prior to experimental use.
(§1) Mid-exponential cultures were used for all assays. The RCC-2 and RCC-5 cell lines were seeded into 24-well plates at 2×10^4 cells/well and allowed to attach to the substratum for 16-18 h prior to treatment. The S180 cell lines were seeded into culture tubes at 1×10^5 cells/ml and treated immediately. Cytotoxicity was determined by quantitation of population growth after 72 h incubation by electronic particle counter (Coulter Electronics, Hialeah, Fla.). The human tumor cell lines were used in a clonogenic assay for cytotoxicity. Cells were seeded at 300 cells/dish, incubated overnight and then treated. Colonies were scored 7-11 days later. In all assays of analog modulation of drug sensitivity, the analog was added minutes prior to the addition of cytotoxic drug.
(§2) FIG. 10 represents the potency of the analog C-20'-deoxy deethyl vincovaline as a modulator of the drug sensitivity of various cell lines: the parental S180 cell line: the two rat colon cancer cell lines, RCC-2 and RCC-5; and the human epidermoid carcinoma cell line KB-3-1 and its MDR cell strain KB-V1, which expresses very high levels of drug resistance (200-500 fold). The enhancement of sensitivity was calculated as the sensitivity index =IC50 of the drug alone divided by the IC50 of the drug+analog. The drugs examined were ADM (o), VBL (Δ), and VCR (.quadrature.). The cytotoxicity of drug and analog treatments in the KB cell lines were measured by cloning efficiencies. The arrows denote the non-toxic concentration limit of the analog in each cell line.

A short description of series [2]: Viability (MTT test) of P388 S cells. Particulars: mouse; sensitive cells P388 S, 24 h and 48 h; read-out: concentrations up to which no cytotoxicity is seen. In kind it is cell-based. The text has this:
(§3) The sensitization of C-20'-deoxy C-20'-deethyl vincovaline (D-DEV) has been tested on sensitive and resistants P388 cell lines originating from mouse lympnoma.
(§4) The resistance to anticancerous drug has been induced on DBA2 mouses bearing P388 cells ascites and maintained by treatment with adryamycin.
(§5) This study has been carried out at least in triplicate.
For orientation: Tetrazolium assays rely on reduction of a dye to a coloured formazan, in cell work by metabolically active cells.

The nature of series [3]: Viability (MTT test) of P388 R cells. Format: cell-based, mouse. Particulars: mouse; resistant cells P388 R, 24 h and 48 h; read-out: concentrations up to which no cytotoxicity is seen.
Text: as §3, §4, §5

For series [4], the system named is RCC-5 cells. Description: Modulation of intrinsic drug resistance, RCC-5. In kind it is cell-based, rat. Particulars: VCR.
In series [5] the test system is KB-3-1 cells. Description: Modulation of drug sensitivity, KB-3-1. Format: cell-based, human. Particulars: ADM, VBL, VCR. How it is done:
as §1
as §2, with “The drugs examined were ADM (o), VBL (Δ), and VCR (.quadrature.).” left out, “The arrows denote the non-toxic concentration limit of the analog in each cell line.” left out

Series [6] has as its system KB-V1 cells. Briefly: Modulation of acquired resistance, KB-V1. In kind it is cell-based, human. Particulars: at the non-toxic concentration limit of 20 μM. How it is done: as §1
as §2, with “The drugs examined were ADM (o), VBL (Δ), and VCR (.quadrature.).” left out, “The arrows denote the non-toxic concentration limit of the analog in each cell line.” left out

Series [7] deals with S180/A10 cells. Description: Modulator potency in MDR cells: reversal of acquired resistance, S180/A10. Format: cell-based, murine. A digest of the protocol:
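S180/A3 and S180/A10 MDR cells at 1×10^5 cells/ml exposed to a modulator concentration range, added minutes before VBL, VCR or ADM at parental-cell IC70s. Growth counted by electronic particle counter after 72 h. Value is the minimal modulator concentration restoring 70% growth inhibition; mean of 2-3 experiments.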

For `CC[C@]12C=CCN3CC[C@@]4(c5cc([C@]6(C(=O)OC)C[C@H]7CCCN(CCc8c6[nH]c6ccccc86)C7)c(OC)cc5N(C)[C@H]4[C@@](O)(C(=O)OC)[C@@H]1OC(C)=O)[C@@H]32` [analog n° 352, C-20'-deoxy-20'-deethyl-C-14', 16'-epi-VBL], the MNTC is 20 µM in series [1], at least 25 µM in series [2] and at least 100 µM in series [3]. Further, in series [4] (RCC-5), the “maximum sensitization to VCR” value is 28 fold. Further, the “concentration overcoming the greater intrinsic resistance of RCC-5 to VCR” value in series [4] (RCC-5 compared to RCC-2) was in the range of 10 to 20 µM. In addition, the “sensitization to all three drugs” value in series [5] is 3-5 fold. The “sensitization to VCR only” value in series [6] stood at 6 fold. For the same molecule, the “reversal of high level ADM resistance (in words)” value in series [7] (A10 cells, 90 fold ADM resistance) is listed as “can reverse high level (90-fold) ADM resistance in MDR cells”. For the same molecule, the “reversal of high level ADM resistance” value in series [7] (ADM, 90-fold resistance, A10) is 80%.
